Assay results: patent US5215889A, “Catalytic and reactive polypeptides and methods for their preparation and use” (The Regents of the University of California, priority 1989, dated 1993)
Each block holds one molecule with its values, some of them ahead of it.

Key:
[1] = molecular target: MOPC315 Fv variant Fv(Y34HL), Tyr 34L to His; assay: Fv fluorescence titration with DNP-L-lysine; assay type: binding, murine; conditions: pH 6.8; ±SE
Procedure: (§1) FIG. 21 is a plot of Fv fluorescence titration with DNP-L-lysine as described in Example 6 of the Experimental section herein. Fv(315)(·),Fv(Y34FL)(Δ), or Fv(Y34HL)(o)(400 μl, 450-500 nM, ε280 nm=37,500 M^-1) in 100 mM potassium phosphate, pH 6.8 (buffer A), was titrated with solutions of 10-100 μM DNP-L-lysine (ε360 nm =17,500 M^-1) in buffer A while monitoring the protein fluorescence (excitation: 282 nm; emission: 343 nm). Fluorescence was corrected for the change in volume. Dissociation constants (KD) were determined by a modified Scatchard analysis.
(§2) The binding of ε-2,4-DNP-(L)-lysine (DNP Lys) by mutant wild type Fv proteins was assessed by titration of the intrinsic fluorescence of MOPC315 Fv (Hochman et al. (1973) supra; Hochman et al. (1977) supra), as shown in FIG. 21. […] DNP-aminoalkyl carboxylic acids of different lengths 6-9 (FIG. 16) were used to probe the location of the positively charged imidazole ring with respect to the DNP site in Fv(Y34HL) at pH 6.0.

[2] = molecular target: T1, MOPC315 Fv, wild type, Fv(315) (Mus musculus, UniProt P01729+P01822); assay: Fv fluorescence titration with DNP-L-lysine; assay type: binding, murine; conditions: pH 6.8; ±SE
T1 construct: The Fv fragment (26 kD) is a heterodimer consisting of two peptides, VH (14 kD) and VL (12 kD); made in house; host or cells: MOPC315 myeloma ascites (Balb/c mice), IgA cleaved with pepsin
T1 sequence (P01729 20-129, one chain of several): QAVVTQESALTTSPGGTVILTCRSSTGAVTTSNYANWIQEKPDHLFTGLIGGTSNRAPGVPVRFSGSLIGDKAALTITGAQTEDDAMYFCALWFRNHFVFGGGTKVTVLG
Procedure: as §1, §2

[3] = molecular target: MOPC315 Fv variant Fv(Y34FL), Tyr 34L to Phe; assay: Fv fluorescence titration with DNP-L-lysine; assay type: binding, murine; conditions: pH 6.8; ±SE
Procedure: as §1, §2

[4] = molecular target: T2, MOPC315 Fv variant Fv(Y34HL), Tyr 34L to His (Mus musculus, UniProt P01729+P01822, Y53H); assay: Hydrolysis of DNP coumarin esters 1-3 by Fv; assay type: biochemical, murine; conditions: for kcat (Table 2, Fv(Y34HL)): pH 6.8, SE (n = 3)
T2 construct: Antibody-derived VH was prepared by denaturing ion exchange chromatography of authentic MOPC315 Fv, obtained from pepsin digestion of purified IgA; lambda cII fusion with Factor Xa site (IleGluGlyArg) (N, cleaved yes); made in house; host or cells: VL: E. coli MZ1 (cII fusion, inclusion bodies); VH: pepsin-cleaved MOPC315 IgA from mouse ascites
Procedure: (§3) FIG. 22 is a Lineweaver-Burke plot of initial rate data obtained for the hydrolysis of 1 as described in Example 6 of the Experimental section herein. Four μl of a 100-fold concentrated solution of substrate 1 in DMSO was added to the 400 μl of Fv (115 nM) in buffer A while monitoring 7-hydroxycoumarin fluorescence at 25° C. (excitation:355nm; emission: 457 nm). A standard of 7-hydroxycoumarin was added at the completion of each assay to assess quenching of coumarin fluorescence by DNP at high substrate concentrations. The buffer background rate was subtracted from the initial rates. Each point represents the average velocity of at least duplicate experiments. Factor X, Factor Xa, or Russell's viper venom had no hydrolytic activity towards 1.
(§4) The ability of wild type and mutant Fvs to hydrolyze esters 1-3 was assayed by measuring the rate of coumarin release fluorimetrically at pH 6.8 (Pollack et al. (1988) supra; Pollack (1989) supra). […] Under these conditions, Fv(Y34HL) turns over at least 11 times and still retains 44% of its activity. The loss of activity is likely due to the accumulation of the inhibitory reaction product 8. […] Ester 2 was a poor substrate (kcat (2)=0.015 min^-1); and the hydrolysis of 3 was not accelerated (kcat (3)<0.005 min^-1). […] The initial rate of hydrolysis of 1 by Fv(Y34HL) at pH 6.8 is approximately 45-fold faster than the reaction with either […] (Table 2). At pH 8.7, the reactivity of Fv(Y34HL) and Fv(315) both increase, but differentially (v[Fv(Y34HL ]/v[Fv(315)]=3.3, at 10 μM 1). Under these conditions Fv(Y34HL) catalytically hydrolyzes 1 while Fv(315) reacts stoichiometrically. The increased reactivity of Fv(315) at higher pH may be due to deprotonation of the tyrosine hydroxyl and subsequent transesterification to form a relatively stable phenol ester.

[5] = molecular target: T3, MOPC315 Fab, thiolated (labeled with bromoketone 4; tyrosine 34L derivatized) (Mus musculus, UniProt P01729+P01822+P01844); assay: Fluorescence quenching binding of substrate by thiolated Fab; set-up: species or system murine
T3 construct: made in house; host or cells: Fab by papain digestion of reduced and alkylated MOPC315 IgA (murine myeloma)
T3 sequence (P01729+P01844 fused, one chain of several): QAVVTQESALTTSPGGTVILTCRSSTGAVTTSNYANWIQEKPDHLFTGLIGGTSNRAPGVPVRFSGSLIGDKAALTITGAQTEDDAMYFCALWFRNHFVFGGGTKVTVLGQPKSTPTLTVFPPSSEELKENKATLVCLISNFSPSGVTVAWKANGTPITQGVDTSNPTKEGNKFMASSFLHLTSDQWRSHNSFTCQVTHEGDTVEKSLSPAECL
Source text: The reaction kinetics are consistent with the formation of a Michaelis complex (FIG. 6). […] Neither the uncleaved affinity-labeled antibody nor the iodoacetamide-alkylated antibody accelerated the rate of the thiolysis reaction above the background rate. The stoichiometry of product release corresponded to 1.0 coumarin to 1.0 Fab-SH. […] However, the introduction of both a thiol and a general base into the label may lead to a catalytic system (Bruice (1959) J. Am. Chem. Soc. 81:5444 and Street et al. (1985) J. Am. Chem. Soc. 107:7669).

[6] = molecular target: T1, MOPC315 Fv, wild type, Fv(315); assay: Hydrolysis of DNP coumarin esters 1-3 by Fv; assay type: biochemical, murine; conditions: pH 6.8
Procedure: as §3, §4

underivatized MOPC 315 = assay: Fluorescence quenching binding in PBS; set-up: species or system murine
Procedure: The hydrolysis of coumarin esters 1a-1d (FIG. 9) by the semisynthetic antibody was assayed in the presence and absence of 1 μM derivatized Fab at varying pH, at 30° C. (Morpholineethanesulfonic acid (100 mM) as used as the buffer in the range of pH 5 to 7. Sodium phosphate (100 mM) was used in the range of pH 6 to 8 and tris-HCl (100 mM) was used in the range of pH 7 to 9.) The release of free coumarin was quantitated fluorometrically, exciting at 355 nm and measuring emission at 455 nm. Antibody rates were corrected by subtracting the rate of cleavage in the absence of antibody. […] This value is almost identical to the KD (5 μM) for the binding of N-DNP-glycine to underivatized MOPC 315, (determined by fluorescence quenching in PBS). […] At pH>8, the unmodified Fab slightly accelerates the cleavage of ester 1b in a stoichiometric reaction, presumably involving modification of an amino acid side chain near the binding site. However, this reaction is not observed in the catalysis by the imidazole-derivatized antibody, where the reactive antibody side-chain is probably inaccessible. The catalytic activity of the semisynthetic antibody is destroyed by treatment with diethylpyrocarbonate, an imidazole-specific reagent. […]

[7] = molecular target: T4, MOPC315 Fab, thiolated (affinity-labeled with 2 and cleaved; free thiol at lysine 52H) (Mus musculus, UniProt P01729+P01822+P01878); assay: Thiolysis of DNP coumarin ester by thiolated Fab; assay type: biochemical, murine
T4 construct: made in house; host or cells: Fab by papain digestion of reduced and alkylated MOPC315 IgA (murine myeloma)
T4 sequence (P01822+P01878 fused): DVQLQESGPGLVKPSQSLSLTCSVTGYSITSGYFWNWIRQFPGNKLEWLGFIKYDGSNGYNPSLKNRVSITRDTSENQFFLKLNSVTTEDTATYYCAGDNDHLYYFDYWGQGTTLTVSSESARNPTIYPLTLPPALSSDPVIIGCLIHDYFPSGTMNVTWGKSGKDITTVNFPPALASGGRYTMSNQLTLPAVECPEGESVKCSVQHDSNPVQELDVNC
T4 sequence (P01729 20-129): as the sequence (P01729 20-129, one chain of several) above
Procedure: Cleavage of DNP coumarin esters 14 and 15 by the thiol-containing antibodies was assayed in the presence of 0.1M NaCl, 50 mM sodium phosphate, pH 7.0, with 24 μM dithiothreitol at 10° C. The release of free coumarin was quantitated fluorometrically, exciting at 355 nm and measuring emission at 455 nm. The S-thiopyridyl Fab was first dialyzed against assay buffer, 30 min. prior to the assays, an aliquot of the thiopyridyl Fab (0.15 mg in 0.19 ml) was reduced with 3.8 mM dithiothreitol at 20° C. For each assay, reduced, thiolated Fab (15 μg in 18.8 μl) was diluted with assay buffer (2.95 ml) so that the net concentrations of thiolated Fab and of dithiothreitol were 0.1 μM and 24 μM, respectively. After equilibrating, the substrate was added (30 μl of a stock solution in acetonitrile) and the solution mixed for 10 sec. before monitoring fluorescence change. Antibody rates were corrected by subtracting the rate of cleavage in the absence of Fab.
The reaction kinetics are consistent with the formation of a Michaelis complex (FIG. 6). […] Neither the uncleaved affinity-labeled antibody nor the iodoacetamide-alkylated antibody accelerated the rate of the thiolysis reaction above the background rate. The stoichiometry of product release corresponded to 1.0 coumarin to 1.0 Fab-SH. […]

[8] = system: monoclonal antibody (IgG) generated against hapten 2 (benzylamine 2); assay: Antibody-catalyzed elimination of HF from β-fluoroketone; assay type: biochemical, Balb/c mice
Procedure: Solutions of substrate 1 were incubated with 2 μM Ig at 37° C. in 10 mM Bis-tris-HCl, 100 mM NaCl pH 6.0, at substrate concentration between 50 and 500 μM. Protein molarity was determined by absorbance at 280 nm using ε^0.1% =1.37 and a molecular weight of 150 kD for IgG. Elimination was followed spectrophotometrically. […] One of these antibodies was characterized further. […] The kinetics of the reaction are consistent with the simple Michaelis-Menten rate expression: [drawing 3] These values afford a kcat /kuncat of 1480 at pH 6.0.
Values of Ki were determined at 10 mM Bis-tris-HCl, 100 mM NaCl, pH 6.0 (37° C.). Substrate concentrations were 200 and 500 μM, Ig concentration was 2 μM, hapten concentration was […] to 1 μM.
The pH dependence of kcat was also determined under the same reaction conditions. Values of kcat are as follows: kcat =0.083 min^-1 at pH 5.5, kcat =0.11 at pH 5.75, kcat =0.188 at pH 6.0, kcat =0.3 at pH 6.5 and kcat =0.43 at pH 7.5. A plot of kcat vs. kcat [H^+ ] gives a pKa of 6.1 for the active site base. It is very likely that this corresponds to a high pKa carboxylate based on the strategy for generating the antibody. Chemical modification experiments with diazoacetamide support this hypothesis.

[9] = system: antibody 15F1-3B1 (IgG, thymine dimer specific); assay: Antibody-sensitized photocleavage of thymine dimer; assay type: biochemical, Balb/c mice
Procedure: Solutions of carboxymethylthymine dimer 1 were irradiated with 300 nm light in the presence of antibody; and dimer cleavage was assayed spectrophotometrically as follows. Deoxygenated solutions of thymine dimer (5-300 μM) and antibody (3 μM) in 100 mM NaCl, 10 mM phosphate buffer, pH 7.5 were irradiated at 18°-20° C. in a 1 mL quartz cuvette. All photolysis experiments were performed with a 1000 W high pressure Hg-Xe lamp equipped with a Photon Technologies International, Inc. Model Q5001 Quantacount electronic actinometer and a diffraction grating monochromator blazed at 500 nm. A bandpass of 3 nm was used for both kinetic and photon counting experiments. […] Monomer formation was assayed spectrophotometrically at fixed time intervals (λmax =272 nm, log ε=3.90).

[10] = substrate: O=C(CCCCNc1ccc([N+](=O)[O-])cc1[N+](=O)[O-])Oc1ccc2ccc(=O)oc2c1; assay: Hydrolysis of DNP coumarin esters 1-3 by Fv; assay type: biochemical, murine; conditions: other: pH 6.8, 25° C.
Procedure: as §3, §4

[11] = substrate: O=C(CCNc1ccc([N+](=O)[O-])cc1[N+](=O)[O-])Oc1ccc2ccc(=O)oc2c1; assay: Hydrolysis of DNP coumarin esters 1-3 by Fv; assay type: biochemical, murine; conditions: other: pH 6.8, 25° C.
Procedure: as §3, §4

Molecule: N[C@@H](CCCCNc1ccc([N+](=O)[O-])cc1[N+](=O)[O-])C(=O)O [DNP-L-lysine, ε-2,4-DNP-(L)-lysine]
Kd [1]: 1400 ± 300 nM
Kd [2]: 270 ± 30 nM
Kd [3]: 270 ± 30 nM
Ki [4]: 3.8 ± 1.5 µM

Molecule: CC(=O)Oc1ccc([N+](=O)[O-])cc1[N+](=O)[O-] [DNP-acetate]
binding of substrate (fluorescence quenching) [5]: did not bind the substrate with appreciable affinity

Molecule: O=C(CCNc1ccc([N+](=O)[O-])cc1[N+](=O)[O-])Oc1ccc2ccc(=O)oc2c1 [compound 3]
kcat (Table 2, Fv(Y34HL)) [4]: < 0.005 min

Molecule: O=C(CCCCCNc1ccc([N+](=O)[O-])cc1[N+](=O)[O-])Oc1ccc2ccc(=O)oc2c1 [compound 2]
kcat (Table 2, Fv(315)) [6]: 0.005 min
kcat (Table 2, Fv(Y34HL)) [4]: 0.015 min

Molecule: O=C(O)CNc1ccc([N+](=O)[O-])cc1[N+](=O)[O-] [DNP-glycine, N-DNP-glycine]
Kd (underivatized MOPC 315): 5 µM
Ki [7]: 8 µM

Km ([8]; pH 6.0, 37° C.): 182 µM
Molecule: CC(=O)CC(F)c1ccc([N+](=O)[O-])cc1 (racemic) [substrate 1, (R,S) 4-Fluoro-4-p-nitro phenylbutan-2-one]
kcat ([8]; pH 5.5): 0.083 min⁻¹
kcat ([8]; pH 5.75): 0.11 min⁻¹
kcat ([8]; pH 6.0, 37° C.): 0.188 min⁻¹
kcat ([8]; pH 6.5): 0.3 min⁻¹
kcat ([8]; pH 7.5): 0.43 min⁻¹

Molecule: C[C@]12C(=O)NC(=O)N(CC(=O)O)[C@H]1[C@H]1N(CC(=O)O)C(=O)NC(=O)[C@]12C [dimer 1, carboxymethylthymine-(cis,syn)cyclobutane dimer]
kcat /Km ([9]; 300 nm irradiation, pH 7.5): 180000 M⁻¹ min⁻¹
Km ([9]; 300 nm irradiation, pH 7.5, 18°-20° C.): 6.5 µM
kcat ([9]; 300 nm, incident flux 1.26×10^-7 einsteins min^-1, pH 7.5, 18°-20° C.): 1.2 min⁻¹

B1: MOPC315 Fv variant Fv(Y34HL), Tyr 34L to His (Mus musculus; Y53H) (protein)
chain 1: QAVVTQESALTTSPGGTVILTCRSSTGAVTTSNHANWIQEKPDHLFTGLIGGTSNRAPGVPVRFSGSLIGDKAALTITGAQTEDDAMYFCALWFRNHFVFGGGTKVTVLGQPKST
chain 2: DVQLQESGPGLVKPSQSLSLTCSVTGYSITSGYFWNWIRQFPGNKLEWLGFIKYDGSNGYNPSLKNRVSITRDTSENQFFLKLNSVTTEDTATYYCAGDNDHLYYFDYWGQGTTLTVSS
notes: Antibody-derived VH was prepared by denaturing ion exchange chromatography of authentic MOPC315 Fv, obtained from pepsin digestion of purified IgA; lambda cII fusion with Factor Xa site (IleGluGlyArg) (N, cleaved yes); made in house; host or cells: VL: E. coli MZ1 (cII fusion, inclusion bodies); VH: pepsin-cleaved MOPC315 IgA from mouse ascites
Km [10]: 2.2 ± 0.2 µM
kcat [10]: 0.18 ± 0.03 min⁻¹
kcat/Km [10]: 8.2×10^4 m^-1 min^-1
kcat [11]: 0.005 min⁻¹
